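Following 48 hours of exposure in 96-well plates, responses at five concentrations were used to interpolate endpoints linearly. GI50 is the concentration that inhibits growth by half.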 Calls of active or inactive are those of the source. Cut-off read from the data, not from the text of the source: active = GI50 up to about 1.1 µM and inactive = higher.
What was measured:
Test in all cases: NCI anticancer screen, dose series, 48 h
A498 = system: A498
ACHN = system: ACHN
COLO 205 = system: COLO 205
HCT-116 = system: HCT-116
HCT-15 = system: HCT-15
HL-60 = system: HL-60
M14 = system: M14
MDA-MB-231 = system: MDA-MB-231
MDA-MB-435 = system: MDA-MB-435
MDA-N = system: MDA-N
Malme-3M = system: Malme-3M
NCI-H23 = system: NCI-H23
PC-3 = system: PC-3
SW-620 = system: SW-620
U-251 = system: U-251
UACC-257 = system: UACC-257
UACC-62 = system: UACC-62
SF-539 = system: SF-539
SK-OV-3 = system: SK-OV-3

Measured: GI50

CC(=O)c1cccn1/C=C(\OC(=O)OC(C)(C)C)c1ccc[nH]1
55.5 µM: HCT-15
inactive: A498 34.8 µM | ACHN > 100 µM | COLO 205 89.7 µM | HCT-116 41.3 µM | HL-60 31 µM | M14 76.4 µM | MDA-MB-231 73.8 µM | MDA-MB-435 > 100 µM | MDA-N 81.8 µM | Malme-3M > 100 µM | NCI-H23 69.8 µM | PC-3 49.1 µM | SW-620 83.9 µM | U-251 64.4 µM | UACC-257 > 100 µM | UACC-62 99.1 µM

Cn1nc(/C=C\C(=O)N2CC(CCl)c3c2cc(N)c2ccccc32)cc1/C=C/C(=O)N1CC(CCl)c2c1cc(N)c1ccccc21 (stereo not given)
active: A498 < 0.01 µM | ACHN < 0.01 µM | COLO 205 < 0.01 µM | HCT-116 < 0.01 µM | M14 < 0.01 µM | MDA-MB-231 < 0.01 µM | MDA-MB-435 < 0.01 µM | MDA-N < 0.01 µM | Malme-3M < 0.01 µM | NCI-H23 < 0.01 µM | PC-3 < 0.01 µM | SF-539 < 0.01 µM | SK-OV-3 < 0.01 µM | SW-620 < 0.01 µM | U-251 < 0.01 µM | UACC-257 0.0225 µM | UACC-62 < 0.01 µM
0.0119 µM: HCT-15

O=C(COc1ccc(OCC(=O)N2C(=O)CC(=O)N(c3ccccc3)C2=S)cc1)N1C(=O)CC(=O)N(c2ccccc2)C1=S
88.5 µM: HCT-15
inactive: A498 80.2 µM | ACHN 66.7 µM | COLO 205 61.2 µM | HCT-116 22.5 µM | M14 89.5 µM | MDA-MB-231 46.8 µM | MDA-MB-435 76 µM | MDA-N 68.7 µM | Malme-3M > 100 µM | NCI-H23 64.4 µM | PC-3 56.9 µM | SK-OV-3 77.4 µM | SW-620 72.1 µM | U-251 46.1 µM | UACC-257 82.2 µM | UACC-62 32.2 µM

CC(=C\c1ccccc1)/C=C(\C#N)C(N)=O
inactive: A498 > 10 µM | ACHN > 10 µM | COLO 205 > 10 µM | M14 > 10 µM | MDA-MB-231 > 10 µM | MDA-MB-435 > 10 µM | MDA-N > 10 µM | Malme-3M > 10 µM | PC-3 > 10 µM | SF-539 > 10 µM | SK-OV-3 > 10 µM | SW-620 > 10 µM | U-251 > 10 µM
> 10 µM: HCT-15

O=C(O)C1CC(C2CCCCN2)CN2CCCCC12 (stereo not given)
> 100 µM: HCT-15
inactive: A498 > 100 µM | ACHN > 100 µM | COLO 205 > 100 µM | HCT-116 > 100 µM | M14 > 100 µM | MDA-MB-231 > 100 µM | MDA-MB-435 > 100 µM | MDA-N > 100 µM | Malme-3M > 100 µM | NCI-H23 > 100 µM | PC-3 > 100 µM | SF-539 57.5 µM | SK-OV-3 > 100 µM | SW-620 > 100 µM | U-251 > 100 µM | UACC-257 > 100 µM | UACC-62 > 100 µM

c1ccc2c(-c3cnc(-c4c[nH]c5ccccc45)cn3)c[nH]c2c1
inactive: A498 > 100 µM | ACHN 65.5 µM | COLO 205 34.4 µM | HCT-116 5.2 µM | M14 29.1 µM | MDA-MB-231 91 µM | MDA-MB-435 24.9 µM | MDA-N 19.1 µM | Malme-3M 38.9 µM | NCI-H23 61.8 µM | PC-3 38 µM | SF-539 23.6 µM | SK-OV-3 49.1 µM | SW-620 18.9 µM | U-251 49.7 µM | UACC-257 43.4 µM | UACC-62 32.8 µM
58.6 µM: HCT-15

CC(=O)N1C(Nc2cccc3nc(C)ccc23)CCN1c1ccccc1 (stereo not given)
inactive: ACHN > 10 µM | COLO 205 > 10 µM | HCT-116 > 10 µM | HL-60 8.2 µM | M14 > 10 µM | MDA-MB-231 > 10 µM | MDA-MB-435 > 10 µM | MDA-N > 10 µM | Malme-3M > 10 µM | NCI-H23 > 10 µM | PC-3 > 10 µM | SF-539 > 10 µM | SK-OV-3 > 10 µM | SW-620 5.73 µM | UACC-257 > 10 µM
7.98 µM: HCT-15

Cc1nc2c(=O)[nH]c3ccc(Cl)cc3c2o1
inactive: A498 > 100 µM | ACHN > 100 µM | COLO 205 > 100 µM | HCT-116 > 100 µM | M14 > 100 µM | MDA-MB-231 > 100 µM | MDA-MB-435 > 100 µM | MDA-N > 100 µM | Malme-3M > 100 µM | NCI-H23 > 100 µM | PC-3 > 100 µM | SF-539 > 100 µM | SK-OV-3 > 100 µM | SW-620 > 100 µM | U-251 > 100 µM | UACC-257 > 100 µM | UACC-62 > 100 µM
> 100 µM: HCT-15

O=C(CNc1ccccn1)Nn1cnc2ccc(S(=O)(=O)Nc3ccccn3)cc2c1=O
> 100 µM: HCT-15
inactive: ACHN > 100 µM | COLO 205 > 100 µM | HCT-116 > 100 µM | HL-60 > 100 µM | M14 > 100 µM | MDA-MB-231 > 100 µM | MDA-MB-435 > 100 µM | MDA-N > 100 µM | Malme-3M > 100 µM | NCI-H23 > 100 µM | PC-3 > 100 µM | SF-539 > 100 µM | SK-OV-3 > 100 µM | SW-620 > 100 µM | U-251 > 100 µM | UACC-257 > 100 µM | UACC-62 > 100 µM

CCCCCCC(O)C(O)CCC(O)C1CCC(CCCCC(O)CC2=CC(C)OC2=O)O1 (stereo not given) [ACETOGENINS]
active: NCI-H23 0.161 µM
4.53 µM: HCT-15
inactive: A498 17.5 µM | ACHN 1.19 µM | COLO 205 1.75 µM | HCT-116 2.8 µM | M14 3.15 µM | MDA-MB-231 1.2 µM | MDA-MB-435 17.4 µM | MDA-N 2.32 µM | Malme-3M 17 µM | PC-3 2.78 µM | SF-539 4.29 µM | SW-620 4.04 µM | U-251 3.54 µM | UACC-257 1.86 µM | UACC-62 2.06 µM

O=C1CS(=O)(=O)C(c2cccc(Oc3ccccc3)c2)N1c1ccc(Cl)cc1 (stereo not given)
20.2 µM: HCT-15
inactive: ACHN 19 µM | COLO 205 17.7 µM | HCT-116 7.91 µM | HL-60 24.2 µM | M14 18.5 µM | MDA-MB-231 31.4 µM | MDA-MB-435 17.1 µM | MDA-N 16.8 µM | Malme-3M 25.4 µM | NCI-H23 21.1 µM | PC-3 17.9 µM | SF-539 19.5 µM | SK-OV-3 49 µM | SW-620 30 µM | U-251 19.1 µM | UACC-257 14.8 µM | UACC-62 8.71 µM

O=C(O)/C=C\C(=O)Nc1ccc2c(c1)-c1ccccc1C2
44.7 µM: HCT-15
inactive: A498 94.6 µM | ACHN > 100 µM | COLO 205 > 100 µM | HCT-116 99.3 µM | HL-60 > 100 µM | M14 > 100 µM | MDA-MB-231 > 100 µM | MDA-MB-435 > 100 µM | MDA-N > 100 µM | Malme-3M 63.7 µM | NCI-H23 70.8 µM | PC-3 69.2 µM | SK-OV-3 > 100 µM | SW-620 > 100 µM | U-251 56.2 µM | UACC-257 98.6 µM | UACC-62 > 100 µM

CCn1c(=O)c2nc(SC)sc2n(-c2ccccc2)c1=S
inactive: ACHN 43.9 µM | COLO 205 > 10 µM | HCT-116 58.7 µM | HL-60 3.08 µM | M14 65.3 µM | MDA-MB-231 > 100 µM | MDA-MB-435 46.7 µM | MDA-N 47.2 µM | Malme-3M > 100 µM | NCI-H23 46.8 µM | PC-3 30.7 µM | SF-539 69.2 µM | SK-OV-3 94.6 µM | SW-620 93.1 µM | U-251 > 100 µM | UACC-257 > 100 µM | UACC-62 38 µM
79.4 µM: HCT-15

COC(=O)[C@H](Cc1ccccc1)NC(=O)[C@H](Cc1ccccc1)NC(=O)[C@@H]1CCCN1C(=O)N[C@H]1C2C=CC(C2)C1C(=O)N1CCC[C@H]1C(=O)N[C@@H](C)C(=O)N[C@H](C(=O)OC)C(C)C (stereo not given in full)
inactive: A498 > 100 µM | ACHN > 100 µM | COLO 205 > 100 µM | HCT-116 > 100 µM | HL-60 35.7 µM | M14 > 100 µM | MDA-MB-231 46.5 µM | MDA-MB-435 > 100 µM | MDA-N > 100 µM | Malme-3M > 100 µM | NCI-H23 > 100 µM | PC-3 > 100 µM | SK-OV-3 > 100 µM | SW-620 69.3 µM | U-251 70.3 µM | UACC-257 > 100 µM | UACC-62 92 µM
> 100 µM: HCT-15

OCc1cn(Cc2ccccc2)c2ccccc12
inactive: ACHN 28.1 µM | HL-60 5.9 µM | M14 > 32.6 µM | MDA-MB-231 19.5 µM | MDA-MB-435 > 51.9 µM | MDA-N 35.6 µM | Malme-3M 5.46 µM | NCI-H23 14.4 µM | PC-3 30.1 µM | SF-539 > 34.5 µM | SK-OV-3 11 µM | SW-620 1.36 µM
10.8 µM: HCT-15
active: COLO 205 0.444 µM | HCT-116 0.555 µM | U-251 1.02 µM | UACC-62 0.646 µM

N#Cc1nc(-c2cnccn2)oc1N
inactive: A498 > 100 µM | ACHN > 100 µM | HCT-116 > 100 µM | HL-60 > 100 µM | M14 > 100 µM | MDA-MB-231 > 100 µM | MDA-MB-435 > 100 µM | MDA-N > 100 µM | PC-3 > 100 µM | SK-OV-3 > 100 µM | SW-620 > 100 µM | U-251 > 100 µM | UACC-257 > 100 µM | UACC-62 > 100 µM
> 100 µM: HCT-15

From ChEMBL document CHEMBL1201862, “PubChem BioAssay data set” (2004)
